Among the data in the NIST ThermoML archive (doi:10.1021/je800658v) are activity coefficient values, retold here.

The nature of the series: activity coefficient (dimensionless); of the first substance listed, at infinite dilution; xn = mol fraction of the nth substance listed. The conditions noted are these: Liquid, x1 = 0.
[1] abbreviates: 303.35 K, inverse gas chromatography.
Setting [2] is: 312.55 K, inverse gas chromatography.
Where [3] appears, read: 322.55 K, inverse gas chromatography.
The mark [4] stands for this setting: 332.55 K, inverse gas chromatography.

Numbers after ± are expanded uncertainties.

Consider `c1ccncc1` [pyridine] + CCCCn1cc[n+](C)c1.F[B-](F)(F)F, for which the activity coefficient runs as follows: under setting [1], 1 ± 0.06; under setting [2], 0.99 ± 0.06; under setting [3], 0.97 ± 0.06; under setting [4], 0.94 ± 0.06.
Taken in the same sequence, the figures for `Cc1ccc(C)cc1` [1,4-dimethylbenzene] + CCCCn1cc[n+](C)c1.F[B-](F)(F)F were 7.36 ± 0.44, 6.68 ± 0.4, 6.71 ± 0.4 and 6.26 ± 0.38.
Taken in the same sequence, the figures for `C1CCCCC1` [cyclohexane] + CCCCn1cc[n+](C)c1.F[B-](F)(F)F were 62.5 ± 3.8, 48.4 ± 2.9, 42.7 ± 2.6 and 35.3 ± 2.1.
For the molecule `CC(C)CC(C)(C)C` [2,2,4-trimethylpentane] + CCCCn1cc[n+](C)c1.F[B-](F)(F)F, the activity coefficient under setting [1] was 321 ± 19, the activity coefficient under setting [2] was 231 ± 14, the activity coefficient under setting [3] stood at 198 ± 12 and the activity coefficient under setting [4] turned out to be 272 ± 16.
In the case of `CCCCO` [butan-1-ol] + CCCCn1cc[n+](C)c1.F[B-](F)(F)F, the activity coefficient by setting is: under setting [1], 4.74 ± 0.29; under setting [2], 3.82 ± 0.23; under setting [3], 3.33 ± 0.2; under setting [4], 2.69 ± 0.16.
The like results for `ClC(Cl)Cl` [trichloromethane] + CCCCn1cc[n+](C)c1.F[B-](F)(F)F were, in that order, 1.04 ± 0.06, 1.04 ± 0.06, 1.09 ± 0.07 and 1.09 ± 0.07.
Taken in the same sequence, the figures for `CCC(=O)CC` [pentan-3-one] + CCCCn1cc[n+](C)c1.F[B-](F)(F)F were 2.63 ± 0.16, 2.57 ± 0.15, 2.66 ± 0.16 and 2.52 ± 0.15.
Taken in the same sequence, the figures for `Cc1cccc(C)c1` [1,3-dimethylbenzene] + CCCCn1cc[n+](C)c1.F[B-](F)(F)F were 7.81 ± 0.47, 7.4 ± 0.44, 6.89 ± 0.41 and 6.56 ± 0.39.
`CCCCCC` [hexane] + CCCCn1cc[n+](C)c1.F[B-](F)(F)F: the activity coefficient is, setting by setting: (303.35 K, Chromatography) 133 ± 9.1; (312.55 K, Chromatography) 130 ± 9; (322.55 K, Chromatography) 97.4 ± 6.7; (332.55 K, Chromatography) 74.2 ± 5.1.
In the case of `CCOCC` [diethyl ether] + CCCCn1cc[n+](C)c1.F[B-](F)(F)F, the activity coefficient worked out at 10.2 ± 0.61 under setting [1], 9.39 ± 0.56 under setting [2], 8.18 ± 0.49 under setting [3] and 7.42 ± 0.45 under setting [4].
Taken in the same sequence, the figures for `C1COCCO1` [1,4-dioxane] + CCCCn1cc[n+](C)c1.F[B-](F)(F)F were 1.26 ± 0.08, 1.24 ± 0.07, 1.28 ± 0.08 and 1.22 ± 0.07.
Taken in the same sequence, the figures for `CCCCCCC` [heptane] + CCCCn1cc[n+](C)c1.F[B-](F)(F)F were 259 ± 16, 250 ± 15, 216 ± 13 and 142 ± 8.7.
The like results for `CCCCCCCCC` [nonane] + CCCCn1cc[n+](C)c1.F[B-](F)(F)F were, in that order, 956 ± 57, 793 ± 48, 612 ± 37 and 464 ± 28.
Regarding `CO` [methanol] + CCCCn1cc[n+](C)c1.F[B-](F)(F)F, the activity coefficient runs as follows: under setting [1], 1.22 ± 0.07; under setting [2], 1.22 ± 0.07; under setting [3], 1.22 ± 0.07; under setting [4], 1.18 ± 0.07.
Turning to `C=O` [methanal] + CCCCn1cc[n+](C)c1.F[B-](F)(F)F, the activity coefficient is, setting by setting: under setting [1], 0.22 ± 0.01; under setting [2], 0.23 ± 0.01; under setting [3], 0.26 ± 0.02; under setting [4], 0.25 ± 0.02.
The like results for `CCC=O` [propanal] + CCCCn1cc[n+](C)c1.F[B-](F)(F)F were, in that order, 1.38 ± 0.08, 1.33 ± 0.08, 1.29 ± 0.08 and 1.21 ± 0.07.
Taken in the same sequence, the figures for `CCCC(C)=O` [pentan-2-one] + CCCCn1cc[n+](C)c1.F[B-](F)(F)F were 2.6 ± 0.16, 2.6 ± 0.16, 2.66 ± 0.16 and 2.53 ± 0.15.
Taken in the same sequence, the figures for `CCC[N+](=O)[O-]` [1-nitropropane] + CCCCn1cc[n+](C)c1.F[B-](F)(F)F were 1.54 ± 0.09, 1.46 ± 0.09, 1.46 ± 0.09 and 1.5 ± 0.09.
As for `c1ccsc1` [thiophene] + CCCCn1cc[n+](C)c1.F[B-](F)(F)F, the activity coefficient worked out at 1.56 ± 0.09 under setting [1], 1.52 ± 0.09 under setting [2], 1.54 ± 0.09 under setting [3] and 1.49 ± 0.09 under setting [4].
The like results for `CCCC=O` [butanal] + CCCCn1cc[n+](C)c1.F[B-](F)(F)F were, in that order, 2.19 ± 0.13, 2.13 ± 0.13, 2.15 ± 0.13 and 2.06 ± 0.12.
Taken in the same sequence, the figures for `CCCO` [propan-1-ol] + CCCCn1cc[n+](C)c1.F[B-](F)(F)F were 3.12 ± 0.19, 2.7 ± 0.16, 2.43 ± 0.15 and 2.14 ± 0.13.
The like results for `CCC(C)=O` [butanone] + CCCCn1cc[n+](C)c1.F[B-](F)(F)F were, in that order, 1.5 ± 0.09, 1.48 ± 0.09, 1.44 ± 0.09 and 1.25 ± 0.08.
On to `C=CCCCC` [hex-1-ene] + CCCCn1cc[n+](C)c1.F[B-](F)(F)F, for which the activity coefficient under setting [1] amounted to 48 ± 2.9, the activity coefficient under setting [2] amounted to 39.3 ± 2.4, the activity coefficient under setting [3] worked out at 36.3 ± 2.2 and the activity coefficient under setting [4] was 38.8 ± 2.3.
Taken in the same sequence, the figures for `CC1CCCCC1` [methylcyclohexane] + CCCCn1cc[n+](C)c1.F[B-](F)(F)F were 98.3 ± 5.9, 82.7 ± 5, 64.2 ± 3.9 and 57.1 ± 3.4.
For the molecule `ClCCl` [dichloromethane] + CCCCn1cc[n+](C)c1.F[B-](F)(F)F, the activity coefficient was 0.69 ± 0.04 under setting [1], 0.72 ± 0.04 under setting [2], 0.79 ± 0.05 under setting [3] and 0.79 ± 0.05 under setting [4].
Take `OCC(F)(F)F` [2,2,2-trifluoroethanol] + CCCCn1cc[n+](C)c1.F[B-](F)(F)F: the activity coefficient by setting is: under setting [1], 0.36 ± 0.02; under setting [2], 0.33 ± 0.02; under setting [3], 0.32 ± 0.02; under setting [4], 0.3 ± 0.02.
Taken in the same sequence, the figures for `c1ccccc1` [benzene] + CCCCn1cc[n+](C)c1.F[B-](F)(F)F were 2.2 ± 0.13, 2.17 ± 0.13, 2.25 ± 0.14 and 2.16 ± 0.13.
The like results for `C#CCCCCC` [1-heptyne] + CCCCn1cc[n+](C)c1.F[B-](F)(F)F were, in that order, 13.2 ± 0.79, 12.5 ± 0.75, 11.9 ± 0.72 and 11.7 ± 0.7.
